# Results as given in article doi:10.1101/2023.03.20.532734v1 (bioRxiv, 2023).
# Residues, ends and D or L forms follow the SMILES beside them.
# Assays:
# [1] = ref [29], [30]; cited from earlier work
# WT GLP-2R = biological target: T1, WT GLP-2R (Homo sapiens, UniProt O95838); assay: GLP-2R signaling assay, cAMP measurements; format: cell-based
# T1 sequence (O95838 1-553): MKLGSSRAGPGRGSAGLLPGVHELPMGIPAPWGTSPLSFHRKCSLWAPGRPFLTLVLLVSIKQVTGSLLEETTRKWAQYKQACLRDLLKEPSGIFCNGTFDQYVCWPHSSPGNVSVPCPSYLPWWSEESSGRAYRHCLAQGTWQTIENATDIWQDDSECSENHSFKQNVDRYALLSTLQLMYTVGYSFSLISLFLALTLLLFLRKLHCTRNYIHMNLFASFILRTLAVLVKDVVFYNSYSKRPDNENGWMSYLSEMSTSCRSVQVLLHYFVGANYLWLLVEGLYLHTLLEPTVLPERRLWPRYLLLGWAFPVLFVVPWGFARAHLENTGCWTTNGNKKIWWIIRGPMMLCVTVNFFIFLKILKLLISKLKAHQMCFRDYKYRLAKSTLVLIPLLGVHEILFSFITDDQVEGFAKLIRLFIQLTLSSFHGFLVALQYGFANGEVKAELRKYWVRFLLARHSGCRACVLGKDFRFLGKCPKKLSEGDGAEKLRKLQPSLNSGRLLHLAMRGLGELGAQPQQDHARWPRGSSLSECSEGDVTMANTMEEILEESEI
SMILES,"half-life, whole body metabolism in vivo [1] [min]",EC50 (WT GLP-2R) [nM]
"CC[C@H](C)[C@H](NC(=O)[C@H](Cc1ccccc1)NC(=O)[C@H](CCC(=O)O)NC(=O)[C@H](CCCCN)NC(=O)[C@H](C)NC(=O)[C@H](C)NC(=O)[C@H](CCC(N)=O)NC(=O)CNC(=O)[C@H](CCC(=O)O)NC(=O)[C@H](CC(C)C)NC(=O)[C@H](Cc1ccc(O)cc1)NC(=O)[C@H](CO)NC(=O)[C@H](CO)NC(=O)[C@@H](NC(=O)[C@H](CC(=O)O)NC(=O)[C@H](CO)NC(=O)[C@@H](NC(=O)[C@H](Cc1ccccc1)NC(=O)[C@@H](NC(=O)CNC(=O)[C@H](CCC(=O)O)NC(=O)[C@H](C)NC(=O)[C@@H](N)Cc1c[nH]cn1)[C@@H](C)O)[C@@H](C)O)C(C)C)C(=O)N[C@@H](C)C(=O)N[C@@H](Cc1c[nH]c2ccccc12)C(=O)N[C@@H](CC(C)C)C(=O)N[C@H](C(=O)N[C@@H](CCCCN)C(=O)NCC(=O)N[C@@H](CCCN=C(N)N)C(=O)NCC(=O)O)C(C)C [GLP-1, glucagon-like peptide 1]",1 to 2,
CC[C@H](C)[C@H](NC(=O)[C@H](Cc1ccccc1)NC(=O)[C@H](CC(=O)O)NC(=O)[C@H](CCCNC(=N)N)NC(=O)[C@H](C)NC(=O)[C@H](C)NC(=O)[C@H](CC(C)C)NC(=O)[C@H](CC(N)=O)NC(=O)[C@H](CC(=O)O)NC(=O)[C@H](CC(C)C)NC(=O)[C@@H](NC(=O)[C@@H](NC(=O)[C@H](CC(N)=O)NC(=O)[C@H](CCSC)NC(=O)[C@H](CCC(=O)O)NC(=O)[C@H](CC(=O)O)NC(=O)[C@H](CO)NC(=O)[C@H](Cc1ccccc1)NC(=O)[C@H](CO)NC(=O)CNC(=O)[C@H](CC(=O)O)NC(=O)[C@H](CO)NC(=O)[C@@H](N)Cc1c[nH]cn1)[C@@H](C)O)[C@@H](C)CC)C(=O)N[C@@H](CC(N)=O)C(=O)N[C@@H](Cc1c[nH]c2ccccc12)C(=O)N[C@@H](CC(C)C)C(=O)N[C@H](C(=O)N[C@@H](CCC(N)=O)C(=O)N[C@H](C(=O)N[C@@H](CCCCN)C(=O)N[C@H](C(=O)N[C@H](C(=O)N[C@@H](CC(=O)O)C(=O)O)[C@@H](C)O)[C@@H](C)CC)[C@@H](C)O)[C@@H](C)CC [GLP-2 Ser2] (H-HSDGSFSDEMNTILDNLAARDFINWLIQTKITD-OH),,0.265
"CC[C@H](C)[C@H](NC(=O)[C@H](Cc1ccccc1)NC(=O)[C@H](CC(=O)O)NC(=O)[C@H](CCCN=C(N)N)NC(=O)[C@H](C)NC(=O)[C@H](C)NC(=O)[C@H](CC(C)C)NC(=O)[C@H](CC(N)=O)NC(=O)[C@H](CC(=O)O)NC(=O)[C@H](CC(C)C)NC(=O)[C@@H](NC(=O)[C@@H](NC(=O)[C@H](CC(N)=O)NC(=O)[C@H](CCSC)NC(=O)[C@H](CCC(=O)O)NC(=O)[C@H](CC(=O)O)NC(=O)[C@H](CO)NC(=O)[C@H](Cc1ccccc1)NC(=O)[C@H](CO)NC(=O)CNC(=O)[C@H](CC(=O)O)NC(=O)[C@H](C)NC(=O)[C@@H](N)Cc1cnc[nH]1)[C@@H](C)O)[C@@H](C)CC)C(=O)N[C@@H](CC(N)=O)C(=O)N[C@@H](Cc1c[nH]c2ccccc12)C(=O)N[C@@H](CC(C)C)C(=O)N[C@H](C(=O)N[C@@H](CCC(N)=O)C(=O)N[C@H](C(=O)N[C@@H](CCCCN)C(=O)N[C@H](C(=O)N[C@H](C(=O)N[C@@H](CC(=O)O)C(=O)O)[C@@H](C)O)[C@@H](C)CC)[C@@H](C)O)[C@@H](C)CC [GLP-2, glucagon-like peptide 2]",7,
